Data set [1] deals with Triton induced hyperlipidemia. The data set is described as follows: Hypolipidemic activity in Triton induced hyperlipidemia in rats. Type of data set: in vivo, male Wistar rats. Conditions: for Total Cholesterol / Triglyceride: Triton treated rats, 30 mg/kg oral gavage 2 h before Triton i.p., plasma 18 h after triton injection; for lipid lowering in triton treated rats (total cholesterol and TG), in words: 30 mg/kg oral gavage. On the procedure: The rats were housed under optimal laboratory conditions, maintained on 12 h light and dark cycle and had free access to food (Hindustan Lever Products, Kolkata, India) and water. Animals were acclimatized to laboratory conditions before the tests. All experiments were carried out between 0900 and 1700 h. The experimental protocols were approved by the Institutional Animal Ethics Committee and conducted according to the Indian National Science Academy guidelines for the use and care of animals. Fifty five male Wistar rats were divided into the following 11 groups containing 5 animals in each group: Atrovastain and various solvates were freshly suspended in 0.5% carboxymethyl cellulose and administered by oral gavage. Two hours later, all groups except control animals received intraperitonial injection of Triton (100 mg/kg). Eighteen hours after triton injection, blood was collected from tail vein. Plasma was separated and stored at −20°C for further biochemical analysis. Total cholesterol and triglyceride were analyzed in plasma samples using diagnostic kits as per manufacturer instructions.

Data set [2] in a line: Enthalpy of solution by microreaction calorimetry. Type of data set: physicochemical. Conditions: for Molar enthalpy of solution in its own solvent, Solvates (ΔsolH^2): each solvate in its own solvent of solvation; for Molar enthalpy of solution in its own solvent, Solvates (ΔsolH^2) / Molar enthalpy of solution, Methanol ΔsolH (methanol) / Molar enthalpy of solution of Atorvastatin Calcium (ATC) (ΔsolH^1) in the solvent of the solvate: 25°C; for Enthalpy of solvation ΔsolvH: calculated by equation 3 from enthalpies of solution of drug and solvate in the solvent of solvation. As for the experimental part:
Molar enthalpy of solution (ΔHsol) was determined in phosphate buffer (pH8) as well as in methanol.
In order to determine the enthalpy associated with the solvation process the enthalpy of solution of a particular solvate was determined in its own solvent.
(3) ΔsolyH=ΔsolH^1−ΔsolH^2
Calorimetric studies were performed on Microreaction calorimeter obtained from Thermal Hazards Technology, UK. Two different solvents, viz, the phosphate buffer (pH 2) and methanol were used to determine the enthalpy of solution and the measurements were performed at 25°C. The size of sample used in this study ranged from 10 to 20 mg and was weighed (Sartorius Model CP225D) into a cylindrical glass tube covered with parafilm on one side. This cylindrical tube was submerged into the ampoule containing the solvent. A plunger with a cap was put from the open end of the tube. The same solvent was put into the reference ampoule. These were put into the sample and reference holes until both rest on the base of the holes. The apparatus was maintained at constant temperature at 25°C (±0.0005°C). The parafilm was shattered mechanically by means of plunger.

Data set [3] in a line: Desolvation of solvates by DSC and TGA. Type of data set: physicochemical. Conditions: for Desolvation temperature: DSC desolvation endotherm maximum, 10°C/min; for Enthalpy of desolvation, ΔdesolvH calculated from equation 4: calculated from enthalpies of solution, heat capacities and enthalpy of vapourization; for Enthalpy of desolvation per mole of solvent (binding energy): equation 1 from DSC desolvation enthalpy and TGA mass loss. From the text:
The desolvation temperatures account for the stability of solvates as the desolvation temperature in all these forms is much higher than the boiling point of the corresponding solvent. The quantitative estimate of the stability of these solvates is established by determining the binding energy for the solvents in all the solvates using equation 1 where the percent mass loss measured over the TG desolvation step of each solvate (ΔmS%) was related to the enthalpy change calculated over the corresponding DSC desolvation endotherm (ΔHSexp).
(1) ΔHS=ΔHSexp×100Δms%×Ms
where ΔHS (J mol^-1) is the enthalpy of desolvation (or binding energy) per mole of the bound solvent, MS is the molecular mass of the solvent.
(4) ΔdesolyH=ΔsolnH^2−ΔsolnH^1−ΔCPTdesoly−25+1/2ΔyapH
. A mass between 2–8 mg was taken into the aluminium pan, covered with lid and sealed. DSC curves were obtained under a nitrogen purge of 50 mL per minute at a heating rate of 10°C per minute with the temperature range from 50-350°C.
Loss of solvent from the samples was characterized by TGA obtained by TA Instruments-Waters LLC, USA. TGA traces were recorded at heating rates of 10°C per minute under a nitrogen purge of 50 ml per minute. Samples with masses between 1–10 mg were analyzed using platinum pan. Mass loss (%) was calculated based on the mass of the original sample.

The nature of data set [4]: Enthalpy of solution by microreaction calorimetry. The class given is physicochemical. The note with it: 25°C.

Structures are written as SMILES.

Turning to `CC(C)=O.CC(C)=O.CC(C)c1c(C(=O)Nc2ccccc2)c(-c2ccccc2)c(-c2ccc(F)cc2)n1CC[C@@H](O)C[C@@H](O)CC(=O)[O-].CC(C)c1c(C(=O)Nc2ccccc2)c(-c2ccccc2)c(-c2ccc(F)cc2)n1CC[C@@H](O)C[C@@H](O)CC(=O)[O-].CC(C)c1c(C(=O)Nc2ccccc2)c(-c2ccccc2)c(-c2ccc(F)cc2)n1CC[C@@H](O)C[C@@H](O)CC(=O)[O-].CC(C)c1c(C(=O)Nc2ccccc2)c(-c2ccccc2)c(-c2ccc(F)cc2)n1CC[C@@H](O)C[C@@H](O)CC(=O)[O-].CCO.[Ca+2].[Ca+2]` [Solvate VI], in data set [1], the “Total Cholesterol” value stood at 197 mg/dL and the Triglyceride was found to be 174 mg/dL. Further, in data set [2], the “Molar enthalpy of solution in its own solvent, Solvates (ΔsolH^2)” value (“Molar enthalpy of solution … (ΔsolH^2)” below) is -2.581 kcal/mol and the “Molar enthalpy of solution, Methanol ΔsolH (methanol)” value amounted to 1.22 kcal/mol. The Desolvation temperature in data set [3] (listed as Solvate-VI) amounted to 72.53 °C. The Desolvation temperature in data set [3] (listed as solvate-VI) amounted to 72.5 °C. In data set [3], the “Enthalpy of desolvation, ΔdesolvH calculated from equation 4” value was 12.43 kcal/mol; the “Enthalpy of desolvation per mole of solvent (binding energy)” value was 15.69 kcal/mol; the “Enthalpy of desolvation, ΔdesolvH from DSC” value (“Enthalpy … ΔdesolvH from DSC” below) worked out at 13.56 kcal/mol. In addition, the “Molar enthalpy of solution, Phosphate buffer (pH8) ΔsolH” value (from here on “Molar enthalpy … (pH8) ΔsolH”) in data set [4] is on record as 8.35 kJ mol^-1.
For the molecule `CC(C)c1c(C(=O)Nc2ccccc2)c(-c2ccccc2)c(-c2ccc(F)cc2)n1CC[C@@H](O)C[C@@H](O)CC(=O)[O-].CC(C)c1c(C(=O)Nc2ccccc2)c(-c2ccccc2)c(-c2ccc(F)cc2)n1CC[C@@H](O)C[C@@H](O)CC(=O)[O-].CCCCO.[Ca+2]` [Solvate VIII], in data set [1], the “lipid lowering in triton treated rats (total cholesterol and TG), in words” value (“lipid lowering in triton treated rats” for short) was “performed better than pure ATC”; the “Total Cholesterol” value was found to be 152 mg/dL; the Triglyceride came to 140 mg/dL. In data set [2], the “Enthalpy of solvation ΔsolvH” value was -4.293 kcal/mol; the “Molar enthalpy of solution … (ΔsolH^2)” value is -1.1 kcal/mol; the “Molar enthalpy of solution, Methanol ΔsolH (methanol)” value amounted to 0.136 kcal/mol. For the same molecule, in data set [3], the Desolvation temperature is 119. 5 °C; the “Enthalpy of desolvation, ΔdesolvH calculated from equation 4” value is 7.603 kcal/mol; the “Enthalpy of desolvation per mole of solvent (binding energy)” value is 14.69 kcal/mol; the “Enthalpy … ΔdesolvH from DSC” value was 6.826 kcal/mol. The “Molar enthalpy … (pH8) ΔsolH” value in data set [4] (listed as Solvate- VIII) is given as 1.17 kJ mol^-1. In addition, the “Molar enthalpy … (pH8) ΔsolH” value in data set [4] (listed as solvate-VIII) turned out to be 2.475 kJ mol^-1.
For `CC(C)O.CC(C)c1c(C(=O)Nc2ccccc2)c(-c2ccccc2)c(-c2ccc(F)cc2)n1CC[C@@H](O)C[C@@H](O)CC(=O)[O-].CC(C)c1c(C(=O)Nc2ccccc2)c(-c2ccccc2)c(-c2ccc(F)cc2)n1CC[C@@H](O)C[C@@H](O)CC(=O)[O-].CC(C)c1c(C(=O)Nc2ccccc2)c(-c2ccccc2)c(-c2ccc(F)cc2)n1CC[C@@H](O)C[C@@H](O)CC(=O)[O-].CC(C)c1c(C(=O)Nc2ccccc2)c(-c2ccccc2)c(-c2ccc(F)cc2)n1CC[C@@H](O)C[C@@H](O)CC(=O)[O-].[Ca+2].[Ca+2]` [Solvate I], in data set [1], the “lipid lowering in triton treated rats” value is reported as “performed better than pure ATC”; the “Total Cholesterol” value was 161 mg/dL; the Triglyceride stood at 143 mg/dL. Also, in data set [2], the “Enthalpy of solvation ΔsolvH” value is -2.612 kcal/mol; the “Molar enthalpy of solution … (ΔsolH^2)” value was -5.844 kcal/mol; the “Molar enthalpy of solution, Methanol ΔsolH (methanol)” value was 0.275 kcal/mol. Moreover, in data set [3], the Desolvation temperature stood at 84.71 °C; the “Enthalpy of desolvation, ΔdesolvH calculated from equation 4” value was 6.197 kcal/mol; the “Enthalpy of desolvation per mole of solvent (binding energy)” value was found to be 33.798 kcal/mol; the “Enthalpy … ΔdesolvH from DSC” value was determined as 5.784 kcal/mol. The “Molar enthalpy … (pH8) ΔsolH” value in data set [4] worked out at 2.51 kJ mol^-1.
Consider `CC(C)(C)O.CC(C)c1c(C(=O)Nc2ccccc2)c(-c2ccccc2)c(-c2ccc(F)cc2)n1CC[C@@H](O)C[C@@H](O)CC(=O)[O-].CC(C)c1c(C(=O)Nc2ccccc2)c(-c2ccccc2)c(-c2ccc(F)cc2)n1CC[C@@H](O)C[C@@H](O)CC(=O)[O-].CC(C)c1c(C(=O)Nc2ccccc2)c(-c2ccccc2)c(-c2ccc(F)cc2)n1CC[C@@H](O)C[C@@H](O)CC(=O)[O-].CC(C)c1c(C(=O)Nc2ccccc2)c(-c2ccccc2)c(-c2ccc(F)cc2)n1CC[C@@H](O)C[C@@H](O)CC(=O)[O-].[Ca+2].[Ca+2]` [Solvate IV], for which, in data set [1], the “Total Cholesterol” value turned out to be 204 mg/dL and the Triglyceride was found to be 168 mg/dL. Also, in data set [2], the “Enthalpy of solvation ΔsolvH” value was -7.574 kcal/mol; the “Molar enthalpy of solution … (ΔsolH^2)” value is 0.755 kcal/mol; the “Molar enthalpy of solution, Methanol ΔsolH (methanol)” value worked out at 1.3 kcal/mol. Moreover, the Desolvation temperature in data set [3] (listed as IV) is 90(±8) °C. Besides, the Desolvation temperature in data set [3] (listed as Solvate- IV) is 83. 34 °C. Further, in data set [3], the “Enthalpy of desolvation, ΔdesolvH calculated from equation 4” value is 18.72 kcal/mol; the “Enthalpy of desolvation per mole of solvent (binding energy)” value is 32.655 kcal/mol; the “Enthalpy … ΔdesolvH from DSC” value was 18.85 kcal/mol. In addition, the “Molar enthalpy … (pH8) ΔsolH” value in data set [4] was found to be 11.50 kJ mol^-1.
Take `CC(C)c1c(C(=O)Nc2ccccc2)c(-c2ccccc2)c(-c2ccc(F)cc2)n1CC[C@@H](O)C[C@@H](O)CC(=O)[O-].CC(C)c1c(C(=O)Nc2ccccc2)c(-c2ccccc2)c(-c2ccc(F)cc2)n1CC[C@@H](O)C[C@@H](O)CC(=O)[O-].CCO.[Ca+2]` [Solvate III]: in data set [1], the “Total Cholesterol” value is 203 mg/dL and the Triglyceride turned out to be 172 mg/dL. Further, in data set [2], the “Molar enthalpy of solution … (ΔsolH^2)” value is -1.82 kcal/mol and the “Molar enthalpy of solution, Methanol ΔsolH (methanol)” value was 0.729 kcal/mol. For the same molecule, the Desolvation temperature in data set [3] (listed as III) was 90(±8) °C. This molecule returned a Desolvation temperature in data set [3] (listed as Solvate- III) of 90.42 °C. Moreover, in data set [3], the “Enthalpy of desolvation, ΔdesolvH calculated from equation 4” value was 8.219 kcal/mol; the “Enthalpy of desolvation per mole of solvent (binding energy)” value amounted to 15.14 kcal/mol; the “Enthalpy … ΔdesolvH from DSC” value came out at 10.68 kcal/mol. The “Molar enthalpy … (pH8) ΔsolH” value in data set [4] is given as 5.46 kJ mol^-1.
Consider `CC(C)c1c(C(=O)Nc2ccccc2)c(-c2ccccc2)c(-c2ccc(F)cc2)n1CC[C@@H](O)C[C@@H](O)CC(=O)O` [ATC, Atorvastatin calcium, reference compound], for which the “lipid lowering in triton treated rats” value in data set [1] is recorded as “reduced lipid profile”. Further, in data set [1], the “Total Cholesterol” value is 198 mg/dL. The same molecule gave a Triglyceride in data set [1] of 169 mg/dL. Also, the “Molar enthalpy of solution, Methanol ΔsolH (methanol)” value in data set [2] was found to be 4.567 kcal/mol. Moreover, the “Molar enthalpy of solution of Atorvastatin Calcium (ATC) (ΔsolH^1) in the solvent of the solvate” value in data set [2] (solvent of Solvate I (isopropyl alcohol)) was -3.231 kcal/mol; in data set [2] (solvent of Solvate II (THF)) it was 2.593 kcal/mol; in data set [2] (solvent of Solvate III (ethanol)), 7.663 kcal/mol; in data set [2] (solvent of Solvate IV (t-butanol)), 8.329 kcal/mol; in data set [2] (solvent of Solvate V (methanol)), 3.908 kcal/mol; in data set [2] (solvent of Solvate VI (acetone + ethanol)), 9.847 kcal/mol. Besides, the “Molar enthalpy of solution of Atorvastatin Calcium (ATC) (ΔsolH^1) in the solvent of the solvate” value in data set [2] (solvent of Solvate VII (ethanol + water)) turned out to be 26.886 kcal/mol; in data set [2] (solvent of Solvate VIII (1-butanol)), 3.193 kcal/mol. Besides, in data set [4], the “Molar enthalpy … (pH8) ΔsolH” value turned out to be 21.89 kJ mol^-1.

Source of the values: paper PMC3547732 (Chemistry Central Journal, 2012).
